The values that follow come from patent publication US8829011B2 (Janssen Pharmaceutica NV, priority 2008, dated 2014).

Assay [1] concerns the target T1, human recombinant 5-HT2B receptor (Homo sapiens, UniProt P41595).
T1 construct: expressed in transfected cells; host or cells: CHO
The experiment in a line: Affinity for 5-HT2B receptor binding sites (competitive radioligand binding, [3H]mesulergine). To be noted: membranes of CHO with h5-HT2B, * = tested as hydrochloride salt. The method in brief:
(§1)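 Membranes from NIH3T3 cells stably expressing h5-HT2A or CHO cells stably expressing h5-HT2B/h5-HT2C; [3H]ketanserin used for 5-HT2A, [3H]mesulergine for 5-HT2B/2C. Compounds from 10 mM DMSO stocks, final DMSO ≤0.4%. Affinity from sigmoidal inhibition curves fitted by nonlinear regression.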

Assay [2] deals with T2, human recombinant 5-HT2A receptor (Homo sapiens, UniProt P28223).
T2 construct: expressed in transfected cells; host or cells: NIH3T3
T2 sequence (P28223 whole entry): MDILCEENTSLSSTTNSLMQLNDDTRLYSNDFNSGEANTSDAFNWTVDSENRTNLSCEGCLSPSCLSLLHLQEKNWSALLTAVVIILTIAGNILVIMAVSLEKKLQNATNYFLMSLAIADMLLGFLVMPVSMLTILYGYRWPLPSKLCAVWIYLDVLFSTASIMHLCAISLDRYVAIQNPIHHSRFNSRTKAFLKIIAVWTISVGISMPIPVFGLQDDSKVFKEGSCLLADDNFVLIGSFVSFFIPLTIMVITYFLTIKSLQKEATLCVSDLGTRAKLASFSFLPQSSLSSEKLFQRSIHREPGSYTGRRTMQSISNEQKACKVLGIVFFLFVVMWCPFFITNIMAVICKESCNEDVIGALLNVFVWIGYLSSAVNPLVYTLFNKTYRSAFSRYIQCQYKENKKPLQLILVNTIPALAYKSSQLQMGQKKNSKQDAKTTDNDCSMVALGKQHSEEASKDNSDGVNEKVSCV
The experiment in a line: Affinity for 5-HT2A receptor binding sites (competitive radioligand binding, [3H]ketanserin). To be noted: membranes of NIH3T3 with h5-HT2A, * = tested as hydrochloride salt. In short, it runs like this: as §1

The next assay deals with T3, rat 5-HT7a receptor (Rattus norvegicus, UniProt P32305).
T3 construct: expressed in transfected cells; host or cells: HEK-293
T3 sequence (P32305 whole entry): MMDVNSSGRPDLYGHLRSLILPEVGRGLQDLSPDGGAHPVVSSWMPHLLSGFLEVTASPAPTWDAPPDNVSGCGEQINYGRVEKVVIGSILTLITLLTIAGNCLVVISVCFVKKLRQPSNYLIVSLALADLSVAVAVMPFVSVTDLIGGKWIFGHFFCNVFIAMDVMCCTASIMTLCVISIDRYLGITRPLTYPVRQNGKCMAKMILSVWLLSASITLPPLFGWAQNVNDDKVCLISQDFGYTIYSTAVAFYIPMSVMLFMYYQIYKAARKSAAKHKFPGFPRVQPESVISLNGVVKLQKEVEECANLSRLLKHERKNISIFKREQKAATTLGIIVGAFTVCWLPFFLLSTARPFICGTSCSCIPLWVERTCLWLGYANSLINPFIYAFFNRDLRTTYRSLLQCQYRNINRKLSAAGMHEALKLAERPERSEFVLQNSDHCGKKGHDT
The experiment in a line: Affinity for 5-HT7 receptor binding sites (competition radioligand binding, [3H]5-CT). To be noted: membranes of HEK-293 cells with rat 5-HT7a; 1 nM [3H]5-CT; * = tested as hydrochloride salt. As to the method:
Stock drug solutions (10 mM) were prepared in DMSO (the final assay concentration of DMSO not exceeding 0.4%). Drug dilutions were prepared in assay buffer.
Sigmoidal inhibition curves were generated and fitted by nonlinear regression analysis (GraphPad Prism).
1. Affinity for 5-HT7 Receptor Binding Sites
The affinity of the compounds described in this invention for the 5-HT7 receptor binding site was evaluated by single competition radioligand binding assay. The assay was performed on membranes prepared from HEK-293 cells that had been subjected to stable transfection with the rat 5-HT7a receptor (GB: NM022938). Cells were scraped from the culture plates, suspended in Tris-HCl 50 mM pH 7.5 and collected through centrifugation (1000 rpm for 5 min). The cell pellets were homogenized (Polytron, 15 s, setting 5) in 50 mM Tris-HCl (pH 7.5), 5 mM EDTA. Following centrifugation (15,000 rpm for 25 min), membranes (135 μg protein/mL) were resuspended in the same buffer and incubated for 60 min at RT with 1 nM [^3H]5-CT in the presence of increasing concentration of test compounds. Nonspecific binding was defined in the presence of 10 μM 5-HT. Incubation was stopped by rapid filtration using the cell harvester (Packard). Radioactivity was counted in a TopCount-NXT (Packard). Experiments were conducted in triplicate.

Assay [3] concerns the target T4, human recombinant 5-HT2C receptor (Homo sapiens, UniProt P28335).
T4 construct: expressed in transfected cells; host or cells: CHO
T4 sequence (P28335 33-458): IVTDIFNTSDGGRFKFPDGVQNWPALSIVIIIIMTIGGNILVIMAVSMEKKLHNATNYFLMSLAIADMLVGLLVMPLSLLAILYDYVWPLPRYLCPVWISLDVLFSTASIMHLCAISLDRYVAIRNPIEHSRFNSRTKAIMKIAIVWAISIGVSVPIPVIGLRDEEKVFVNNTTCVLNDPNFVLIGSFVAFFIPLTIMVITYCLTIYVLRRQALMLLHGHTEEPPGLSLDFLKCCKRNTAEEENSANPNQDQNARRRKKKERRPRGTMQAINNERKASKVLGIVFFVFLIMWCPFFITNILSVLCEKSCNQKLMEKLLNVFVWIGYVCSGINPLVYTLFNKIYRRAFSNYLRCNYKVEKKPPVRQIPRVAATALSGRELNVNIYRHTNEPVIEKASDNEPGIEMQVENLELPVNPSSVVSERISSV
The experiment in a line: Affinity for 5-HT2C receptor binding sites (competitive radioligand binding, [3H]mesulergine). As to conditions: membranes of CHO with h5-HT2C, * = tested as hydrochloride salt. In short, it runs like this: as §1

Assay [4] deals with T5, human recombinant 5-HT6 receptor (Homo sapiens, UniProt P50406).
T5 construct: expressed in transfected cells; host or cells: HEK-293
T5 sequence (P50406 whole entry): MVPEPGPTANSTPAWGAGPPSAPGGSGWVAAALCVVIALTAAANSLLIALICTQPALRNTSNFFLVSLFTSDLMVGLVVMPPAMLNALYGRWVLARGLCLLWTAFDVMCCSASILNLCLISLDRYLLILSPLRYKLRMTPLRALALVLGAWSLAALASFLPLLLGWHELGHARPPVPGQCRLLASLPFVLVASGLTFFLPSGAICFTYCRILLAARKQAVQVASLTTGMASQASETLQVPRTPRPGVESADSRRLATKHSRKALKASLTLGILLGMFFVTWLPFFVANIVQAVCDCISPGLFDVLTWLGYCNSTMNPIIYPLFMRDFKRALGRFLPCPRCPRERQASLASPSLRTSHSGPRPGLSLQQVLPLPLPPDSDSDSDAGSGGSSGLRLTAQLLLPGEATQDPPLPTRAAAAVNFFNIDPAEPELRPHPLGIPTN
The experiment in a line: Affinity for 5-HT6 receptor binding sites (competitive radioligand binding, [3H]LSD). To be noted: membranes of HEK-293 with h5-HT6, * = tested as hydrochloride salt. In short, it runs like this:
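Membranes from HEK-293 cells stably expressing human 5-HT6, competition against [3H]LSD; nonspecific binding defined with 1 μM clozapine. DMSO ≤0.4% final. Inhibition curves fitted by nonlinear regression.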

Where a name gives a salt, the structure may show the parent alone.

T1 sequence (P41595 whole entry): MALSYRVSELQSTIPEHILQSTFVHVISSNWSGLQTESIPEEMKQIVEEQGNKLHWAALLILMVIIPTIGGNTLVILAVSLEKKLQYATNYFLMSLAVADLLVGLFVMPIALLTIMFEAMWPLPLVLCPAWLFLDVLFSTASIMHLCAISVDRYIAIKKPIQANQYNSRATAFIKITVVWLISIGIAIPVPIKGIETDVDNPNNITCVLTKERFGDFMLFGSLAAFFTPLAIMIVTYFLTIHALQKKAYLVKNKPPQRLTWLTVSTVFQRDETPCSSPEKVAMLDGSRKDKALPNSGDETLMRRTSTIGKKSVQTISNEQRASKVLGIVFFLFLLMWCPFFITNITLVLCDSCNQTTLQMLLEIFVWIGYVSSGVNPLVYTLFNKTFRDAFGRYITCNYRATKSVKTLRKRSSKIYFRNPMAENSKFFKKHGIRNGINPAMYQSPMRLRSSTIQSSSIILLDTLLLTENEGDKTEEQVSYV

In general, Ki refers to a measure of affinity in units of concentration, obtained from inhibition or displacement. Consider `Cc1ccc(-c2nc(N3CCCCC3C)nc3c2CCCNC3)cc1` (centres unmarked) [Example 8, 2-(2-Methyl-piperidin-1-yl)-4-p-tolyl-6,7,8,9-tetrahydro-5H-pyrimido[4,5-c]azepine], for which the Ki in assay [1] is 100 nM; in assay [2], 180 nM; on rat 5-HT7a receptor, 500 nM; in assay [3] it was 2000 nM; in assay [4], 68 nM.

As for `CCN(CC)c1nc2c(c(-c3ccc(F)cc3)n1)CCNCC2` [Example 9, Diethyl-[4-(4-fluoro-phenyl)-6,7,8,9-tetrahydro-5H-pyrimido[4,5-d]azepin-2-yl]-amine hydrochloride], the Ki in assay [1] stood at 7 nM; in assay [2], 20 nM; at rat 5-HT7a receptor, 29 nM; in assay [3], 40 nM; in assay [4], 84 nM.

As for `CCN(CC)c1nc2c(c(-c3ccncc3)n1)CCNCC2` [Example 10, Diethyl-(4-pyridin-4-yl-6,7,8,9-tetrahydro-5H-pyrimido[4,5-d]azepin-2-yl)-amine hydrochloride], the Ki in assay [1] was 50 nM; in assay [2] it was 500 nM; on rat 5-HT7a receptor, 1200 nM; in assay [3], over 10000 nM; in assay [4], 1460 nM.

On to `CCN(CC)c1nc2c(c(-c3ccc(C)cc3)n1)CCNCC2` [Example 11, Diethyl-(4-p-tolyl-6,7,8,9-tetrahydro-5H-pyrimido[4,5-d]azepin-2-yl)-amine hydrochloride], for which the Ki in assay [1] stood at 5 nM; in assay [2], 4 nM; on rat 5-HT7a receptor, 40 nM; in assay [3], 63 nM; in assay [4], 25 nM.

Consider `CCN(CC)c1nc2c(c(-c3ccsc3)n1)CCNCC2` [Example 12, Diethyl-(4-thiophen-3-yl-6,7,8,9-tetrahydro-5H-pyrimido[4,5-d]azepin-2-yl)-amine hydrochloride], for which the inhibition constant Ki in assay [1] was 3.2 nM; in assay [2], 30 nM; at rat 5-HT7a receptor it was 40 nM; in assay [3], 50 nM; in assay [4], 80 nM.

Consider `CCN(CC)c1nc2c(c(-c3ccc(OC)cc3)n1)CCNCC2` [Example 13, Diethyl-[4-(4-methoxy-phenyl)-6,7,8,9-tetrahydro-5H-pyrimido[4,5-d]azepin-2-yl]-amine hydrochloride], for which the inhibition constant Ki in assay [1] is 0.8 nM; in assay [2], 10 nM; at rat 5-HT7a receptor, 32 nM; in assay [3], 40 nM; in assay [4], 28 nM.

Regarding `CCN(CC)c1nc2c(c(-c3ccc(C#N)cc3)n1)CCNCC2` [Example 14, 4-(2-Diethylamino-6,7,8,9-tetrahydro-5H-pyrimido[4,5-d]azepin-4-yl)-benzonitrile hydrochloride], the inhibition constant Ki in assay [1] stood at 5 nM; in assay [2] it was 40 nM; at rat 5-HT7a receptor it was 63 nM; in assay [3], 130 nM; in assay [4], 220 nM.

For the compound `CCN(CC)c1nc2c(c(-c3ccc(F)cc3)n1)CCNC2` [Example 24, Diethyl-[4-(4-fluoro-phenyl)-5,6,7,8-tetrahydro-pyrido[3,4-d]pyrimidin-2-yl]-amine], the Ki in assay [1] came out at 7 nM; in assay [2] it was 3 nM; at rat 5-HT7a receptor, 50 nM; in assay [3] it was 120 nM; in assay [4], 933 nM.

On to `CCN(CC)c1nc2c(c(-c3ccc(C)cc3)n1)CCNC2` [Example 26, Diethyl-(4-p-tolyl-5,6,7,8-tetrahydro-pyrido[3,4-d]pyrimidin-2-yl)-amine], for which the Ki in assay [1] was 13 nM; in assay [2], 7 nM; on rat 5-HT7a receptor, 100 nM; in assay [3] it was 200 nM; in assay [4], 316 nM.

With `CCN(CC)c1nc2c(c(-c3ccc(OC)cc3)n1)CCNC2` [Example 28, Diethyl-[4-(4-methoxy-phenyl)-5,6,7,8-tetrahydro-pyrido[3,4-d]pyrimidin-2-yl]-amine], the Ki in assay [1] was 15 nM; in assay [2], 70 nM; on rat 5-HT7a receptor it was 130 nM; in assay [3] it was 280 nM; in assay [4] it was 1510 nM.

As for `CCN(CC)c1nc2c(c(-c3ccc(C#N)cc3)n1)CCNC2` [Example 30, 4-(2-Diethylamino-5,6,7,8-tetrahydro-pyrido[3,4-d]pyrimidin-4-yl)-benzonitrile], the Ki came out at 60 nM in assay [1]; 48 nM in assay [2]; 300 nM on rat 5-HT7a receptor; 1400 nM in assay [3]; 3720 nM in assay [4].

Regarding `CC1CCCN1c1nc2c(c(-c3ccc(F)cc3)n1)CNCC2` (centres unmarked) [Example 38, 4-(4-Fluoro-phenyl)-2-(2-methyl-pyrrolidin-1-yl)-5,6,7,8-tetrahydro-pyrido[4,3-d]pyrimidine hydrochloride], the Ki in assay [1] is 50 nM; in assay [2] it was 1.9 nM; at rat 5-HT7a receptor it was over 10000 nM; in assay [3], 65 nM; in assay [4], 1950 nM.

For `Fc1ccc(-c2nc(N3CCOCC3)nc3c2CNCC3)cc1` [Example 42, 4-(4-Fluoro-phenyl)-2-morpholin-4-yl-5,6,7,8-tetrahydro-pyrido[4,3-d]pyrimidine], the inhibition constant Ki in assay [1] is 2050 nM; in assay [2], 20 nM; on rat 5-HT7a receptor, over 10000 nM; in assay [3] it was 500 nM; in assay [4], 9770 nM.

In the case of `CC(C)N(c1nc2c(c(-c3ccc(F)cc3)n1)CNCC2)C(C)C` [Example 43, [4-(4-Fluoro-phenyl)-5,6,7,8-tetrahydro-pyrido[4,3-d]pyrimidin-2-yl]-diisopropyl-amine hydrochloride], the Ki is 100 nM in assay [1]; 3 nM in assay [2]; 320 nM at rat 5-HT7a receptor; 150 nM in assay [3]; 195 nM in assay [4].

`C[C@H]1COCCN1c1nc2c(c(-c3ccc(F)cc3)n1)CNCC2` [Example 45, 4-(4-Fluoro-phenyl)-2-(3-methyl-morpholin-4-yl)-5,6,7,8-tetrahydro-pyrido[4,3-d]pyrimidine]: the Ki in assay [1] is 1200 nM; in assay [2], 24 nM; on rat 5-HT7a receptor it was over 10000 nM; in assay [3], 2500 nM; in assay [4] it was 3390 nM.

On to `CCNc1nc2c(c(-c3ccc(C)cc3)n1)CNCC2` [Example 48, Ethyl-(4-p-tolyl-5,6,7,8-tetrahydro-pyrido[4,3-d]pyrimidin-2-yl)-amine], for which the Ki in assay [1] was 3000 nM; in assay [2], 2000 nM; at rat 5-HT7a receptor it was over 10000 nM; in assay [3] it was over 10000 nM; in assay [4] it was over 10000 nM.

Consider `Cc1ccc(-c2nc(N3CCOCC3)nc3c2CNCC3)cc1` [Example 49, 2-Morpholin-4-yl-4-p-tolyl-5,6,7,8-tetrahydro-pyrido[4,3-d]pyrimidine], for which the inhibitory constant (Ki) in assay [1] was 5010 nM; in assay [2], 100 nM; on rat 5-HT7a receptor it was 530 nM; in assay [3] it was 630 nM; in assay [4], 2090 nM.

Turning to `Cc1ccc(-c2nc(N3CCCCC3)nc3c2CNCC3)cc1` [Example 50, 2-Piperidin-1-yl-4-p-tolyl-5,6,7,8-tetrahydro-pyrido[4,3-d]pyrimidine], the Ki was 160 nM in assay [1]; 30 nM in assay [2]; 350 nM at rat 5-HT7a receptor; 130 nM in assay [3]; 776 nM in assay [4].

Take `Cc1ccc(-c2nc(NCc3ccccc3)nc3c2CNCC3)cc1` [Example 51, Benzyl-(4-p-tolyl-5,6,7,8-tetrahydro-pyrido[4,3-d]pyrimidin-2-yl)-amine]: the Ki in assay [1] is 700 nM; in assay [2] it was 75 nM; at rat 5-HT7a receptor it was 320 nM; in assay [3], 100 nM; in assay [4], 912 nM.
